Laboratory results published in patent US20090093468A1, “Peptide Deformylase Inhibitors” (priority 2004, published 2009).
pIC50: −log10 of the molar value. Where two headings read alike, the source gives them in different places.

What was measured:
[1] = biological target: bacterial PDF (peptide deformylase), enzyme from E. coli (Escherichia coli, UniProt P0A6K3); experiment: Bacterial peptide deformylase (PDF) assay, enzyme from E. coli; type: biochemical
Protocol: (§1) The IC50 value of a compound of the invention as a bacterial PDF inhibitor was determined using the following assay.
(§2) Assay buffer (pH 7.2): 0.1 M MOPS pH was adjusted to 7.2 with NaOH, containing 0.25 M NaCl, 100 microgram/mL catalase and 1 mg/mL BSA.
(§3) Enzyme mix: 670 ng/mL of enzyme (to finally have 50 ng of enzyme per well).
(§4) Substrate: 10 mM f-Met-Ala was made up from 200 mM f-Met-Ala in methanol with assay buffer.
(§5) TNBS solution: Freshly dilute 1 M TNBS stock solution to 1:10 with water.
(§6) Buffer C: 0.5 M borate buffer adjusted to pH 9.5 with NaOH.
(§7) Buffer D: 0.2 ml of freshly prepared 0.5 M Na2SO3 was mixed with 9.8 mL of 0.5M NaH2PO4.
(§8) Inhibitor solution: 2 mM Sodium 4-(hydroxymercurio) benzoate in assay buffer.
(§9) The assay was performed in a 96 Microtiter plate containing test compound. To each well containing test compound mix was added 75 microliter of enzyme mix from E. coli followed, by the addition of 25 microliter of substrate mix. The resulting mix was incubated for 30 minutes at room temperature with shaking. TNBS solution (50 microliter/well) was added and the resulting mixture was incubated for 15 minutes under shaking. Buffer C was then added (20 microliter/well). After incubating at room temperature for 15 minutes under shaking, buffer D was added (50 microliter/well). The optical […] was then measured at 420 nm, thereby determining the IC50 value.

[2] = biological target: T1, bacterial PDF (peptide deformylase), enzyme from S. aureus (Staphylococcus aureus, UniProt P68826); experiment: Bacterial peptide deformylase (PDF) assay, enzyme from S. aureus; type: biochemical
T1 sequence (P68826 1-183): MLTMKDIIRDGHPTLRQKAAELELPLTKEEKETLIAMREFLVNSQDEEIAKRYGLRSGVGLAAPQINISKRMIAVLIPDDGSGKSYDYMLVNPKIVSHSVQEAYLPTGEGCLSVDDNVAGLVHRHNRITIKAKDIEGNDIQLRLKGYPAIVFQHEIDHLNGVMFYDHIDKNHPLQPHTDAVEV
Protocol: as §1, §2, §3, §4, §5, §6, §7, §8, §9
The assay was repeated using enzyme mix from S. aureus.

[3] = PDF enzyme from S. aureus, substrate f-Met-Ala, TNBS readout at 420 nm, read-out: IC50 (enzyme from S. aureus)

bacterial PDF (peptide deformylase), enzyme from E. coli, sequence (P0A6K3 whole entry): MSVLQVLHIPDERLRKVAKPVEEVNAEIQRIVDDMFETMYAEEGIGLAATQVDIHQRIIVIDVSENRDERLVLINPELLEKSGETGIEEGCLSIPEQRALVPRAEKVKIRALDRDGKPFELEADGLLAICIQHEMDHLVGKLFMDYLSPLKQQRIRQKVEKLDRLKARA

| Structure (SMILES) | pIC50 [1] | pIC50 [2, 3] | pIC50 ([1]; PDF enzyme from E. coli, substrate f-Met-Ala, TNBS readout at 420 nm, read-out: IC50 (enzyme from E. coli)) | pIC50 [2] |
| --- | --- | --- | --- | --- |
| CCN1CC(CC(=O)NO)S(=O)(=O)c2ccc(C(=O)NCc3cccs3)cc21 (centres unmarked) [Example 29, 4-Ethyl-2-hydroxycarbamoylmethyl-1,1-dioxo-1,2,3,4-tetrahydro-1λ^6-benzo[1,4]thiazine-6-carboxylic acid (thiophen-2-ylmethyl)-amide] | 5.02 | 5.47 |  |  |
| CCN1CC(CC(=O)NO)S(=O)(=O)c2ccc(C(=O)Nc3cc[nH]n3)cc21 (centres unmarked) [Example 30, 4-Ethyl-2-hydroxycarbamoylmethyl-1,1-dioxo-1,2,3,4-tetrahydro-1λ^6-benzo[1,4]thiazine-6-carboxylic acid (1H-pyrazol-3-yl)-amide] | 4.94 | 4.51 |  |  |
| CCN1CC(CC(=O)NO)S(=O)(=O)c2ccc(C(=O)Nc3nccs3)cc21 (centres unmarked) [Example 31, 4-Ethyl-2-hydroxycarbamoylmethyl-1,1-dioxo-1,2,3,4-tetrahydro-1λ^6-benzo[1,4]thiazine-6-carboxylic acid thiazol-2-ylamide] | 4.91 | 4.68 |  |  |
| CCN1CC(CC(=O)NO)S(=O)(=O)c2ccc(C(=O)N3CCN(C)CC3)cc21 (centres unmarked) [Example 32, 2-[4-Ethyl-6-(4-methyl-piperazine-1-carbonyl)-1,1-dioxo-1,2,3,4-tetrahydro-1λ^6-benzo[1,4]thiazin-2-yl]-N-hydroxy-acetamide] | < 3.70 | 3.89 |  |  |
| CCN1CC(CC(=O)NO)S(=O)(=O)c2ccc(C(=O)Nc3cc(-c4cccs4)n[nH]3)cc21 (centres unmarked) [Example 33, 4-Ethyl-2-hydroxycarbamoylmethyl-1,1-dioxo-1,2,3,4-tetrahydro-1λ^6-benzo[1,4]thiazine-6-carboxylic acid (5-thiophen-2-yl-2H-pyrazol-3-yl)-amide] | 6.05 | 5.52 |  |  |
| CCN1CC(CC(=O)NO)S(=O)(=O)c2ccc(C(=O)NC3CC4CCC(C3)N4C)cc21 (centres unmarked) [Example 34] |  |  | 4.86 | 5.22 |
| O=C(CC1CN(CC2CC2)c2ccccc2S1(=O)=O)NO (centres unmarked) [Example 35] | 5.68 | 5.32 |  |  |
| O=C(CC1CN(CC2CCC2)c2ccccc2S1(=O)=O)NO (centres unmarked) [Example 36, 2-(4-Cyclobutylmethyl-1,1-dioxo-1,2,3,4-tetrahydro-1λ^6-benzo[1,4]thiazin-2-yl)-N-hydroxy-acetamide] | 5.48 | 5.42 |  |  |
| O=C(CC1CN(CC2CCCC2)c2ccccc2S1(=O)=O)NO (centres unmarked) [Example 37, 2-(4-Cyclopentylmethyl-1,1-dioxo-1,2,3,4-tetrahydro-1λ^6-benzo[1,4]thiazin-2-yl)-N-hydroxy-acetamide] | 4.95 | 4.86 |  |  |
| O=C(CC1CN(CC2CCCCC2)c2ccccc2S1(=O)=O)NO (centres unmarked) [Example 38, 2-(4-Cyclohexylmethyl-1,1-dioxo-1,2,3,4-tetrahydro-1λ^6-benzo[1,4]thiazin-2-yl)-N-hydroxy-acetamide] | 4.48 | 4.74 |  |  |
